Source: patent US20260062412A1, “NITROGEN-CONTAINING HETEROCYCLIC COMPOUND HAVING MYT1 INHIBITORY ACTIVITY” (CHUGAI SEIYAKU KABUSHIKI KAISHA, priority 2023, published 2026)
Where a name gives a salt, the structure may show the parent alone.

What was measured:
LU65 = experiment: Cytotoxicity test with pemetrexed upon addition of each example compound (CellTiter-Glo); type: cell-based, human; conditions: combination with pemetrexed, LU65 cells, 7 days; maximum value, at the MYT1 inhibitor and pemetrexed concentrations
Description: LU65 (received from human tissue bank (JCRB Cell Bank)) was used in the evaluation of the present invention. LU65 is a lung cancer cell line having a truncated deletion mutation of S82* in RB1 gene (see Nature. 2019 May; 569(7757): 503-508. (Non Patent Literature 22)), in which the function of RB1 is decreased. The cell culture was carried out using RPMI-1640 (manufactured by SIGMA) containing 10% FBS (manufactured by SIGMA).
Each pemetrexed (manufactured by Tokyo Kasei Kogyo Co., Ltd.) and each example compound of each concentration were diluted using a DMSO solution, and 0.04 μL of each of series of dilution and DMSO was added to each well of cell culture plate using Echo 555 Liquid Handler (manufactured by Beckman Coulter Inc.). 1000 LU65 cells ([…]) were added to each well, which was cultured at 37° C. in a 5% CO2 incubator for 7 days. Intracellular ATP level which is a cell survival marker was measured and used in the monitoring of cell number. After culturing, 20 μL of CellTiter-Glo (registered trademark) 2.0 (manufactured by Promega) was added to each well, and the emission intensity was measured using Multimode Plate Reader En Vision (registered trademark) Xcite (manufactured by PerkinElmer). The cell survival rate under each condition was calculated by setting the value obtained by subtracting the luminescence of the cell unseeded well from the luminescence of the DMSO-added well as 100%, and calculating the proportion of a value obtained by subtracting the luminescence of the cell unseeded well from the luminescence detected at each well.
In addition, the cytotoxic activity under each condition was calculated by subtracting the survival rate in a combination of pemetrexed of each treatment concentration and each example compound of each treatment concentration, from 100%.

MYT1 protein [1] = target: T1, MYT1 protein (Homo sapiens (Human), UniProt Q99640); experiment: MYT1 kinase activity inhibition test (ELISA, phosphorylation of Y15 of CDK1); type: biochemical; conditions: phosphorylation level of Y15 of CDK1 protein caused by MYT1 protein, 60 minutes
T1 sequence (Q99640 whole entry): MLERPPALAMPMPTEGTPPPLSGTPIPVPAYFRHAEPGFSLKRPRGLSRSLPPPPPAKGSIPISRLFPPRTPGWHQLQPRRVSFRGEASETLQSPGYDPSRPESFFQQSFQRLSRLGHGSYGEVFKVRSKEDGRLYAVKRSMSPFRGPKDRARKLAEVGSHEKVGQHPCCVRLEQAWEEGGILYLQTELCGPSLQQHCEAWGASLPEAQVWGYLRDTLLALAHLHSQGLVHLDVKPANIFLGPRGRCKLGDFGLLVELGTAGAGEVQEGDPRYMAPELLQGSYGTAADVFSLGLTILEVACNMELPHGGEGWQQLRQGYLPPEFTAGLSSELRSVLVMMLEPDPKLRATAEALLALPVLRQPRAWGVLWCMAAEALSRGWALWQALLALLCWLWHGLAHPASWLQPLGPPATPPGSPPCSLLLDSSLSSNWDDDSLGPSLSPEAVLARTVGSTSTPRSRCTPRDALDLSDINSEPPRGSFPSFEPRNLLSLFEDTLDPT
Description: The MYT1 kinase activity inhibitory capacity of each compound was evaluated by evaluating the phosphorylation level of Y15 of CDK1 protein caused by MYT1 protein, by ELISA. The kit of CycLex Weel Kinase Assay/Inhibitor Screening Kit Ver. 3 (manufactured by MBL, CY-1172V3) was used. Using Kinase Buffer, 10 μL of 5 nM MYT1 protein (manufactured by Carna Biosciences, Inc.) was prepared. In addition, 30 μL of 83.3 μM of ATP was prepared using Kinase Buffer. In addition, 10 μL of each compound was diluted to each concentration using Kinase Buffer. 30 μL of ATP was added to the plate of the kit, and thereafter, 10 μL of each compound was added thereto. Further, 10 μL of the diluted MYT1 protein solution was added thereto, and then the mixture was mixed, which was allowed to stand at room temperature for 60 minutes. The reaction solution was removed from each well, and each well was washed using Wash Buffer. After Wash Buffer was removed, 100 μL of HRP conjugated Anti-phospho-tyrosine antibody was added to each well, which was allowed to stand at room temperature for 60 minutes. Thereafter, the reaction solution was removed from each well, and each well was washed using Wash Buffer. After Wash Buffer was removed, 100 μL of Substrate Reagent was added to each well, which was allowed to stand at room temperature for 8 minutes. Thereafter, 100 μL of Stop Solution (1 N sulfuric acid) was added to each well according to the manual. Absorbances at 450 nm and 590 nm were measured using Envision (manufactured by PerkinElmer). The phosphorylation level of CDK1 protein was evaluated for each well by subtracting the absorbance at 590 nm from the absorbance at 450 nm. The inhibition rate of each compound added at each concentration was calculated by setting the signal when the compound was not added as 100% and the signal when MYT1 protein was not added as 0%, and the calculation results of IC50 were shown in Table 4.

MYT1 protein [2] = target: T1, MYT1 protein; experiment: Test for binding to ATP binding site of MYT1 (Kinase Tracer 178 / Eu-Anti-GST antibody TR-FRET); conditions: ATP binding site of MYT1, 30 minutes at room temperature

Row | SMILES | IC50 (MYT1 protein [1]) [nM] | IC50 (MYT1 protein [2]) [nM] | Bliss Score (Max) (LU65) [%] | HSA Score (MAX) (LU65) [%]
1 | Nc1c(-c2ccc(Cl)c3[nH]ncc23)c2cc(Cl)c(Br)cc2[nH]c1=O [Compound A27, 3-Amino-7-bromo-6-chloro-4-(7-chloro-1H-indazol-4-yl)-1H-quinolin-2-one] | 0.52 | 40 | – | –
2 | Nc1c(-c2ccc(Cl)c3[nH]ncc23)c2cc(Cl)c(OC(F)F)cc2[nH]c1=O [Compound A30, 3-Amino-6-chloro-4-(7-chloro-1H-indazol-4-yl)-7-(difluoromethoxy)-1H-quinolin-2-one] | 0.71 | 43 | – | –
3 | Nc1c(-c2cc(F)cc3[nH]ncc23)c2cc(Cl)ccc2[nH]c1=O [Compound A56, 3-Amino-6-chloro-4-(6-fluoro-1H-indazol-4-yl)-1H-quinolin-2-one] | 1.1 | 58 | – | –
4 | Nc1c(-c2ccc(F)c3[nH]ncc23)c2cc(Cl)ccc2[nH]c1=O [Compound A57, 3-Amino-6-chloro-4-(7-fluoro-1H-indazol-4-yl)-1H-quinolin-2-one] | 0.61 | 13 | – | –
5 | Cc1ccc(-c2c(N)c(=O)[nH]c3ccc(Cl)cc23)c2cn[nH]c12 [Compound A60, 3-Amino-6-chloro-4-(7-methyl-1H-indazol-4-yl)-1H-quinolin-2-one] | 0.55 | 7 | – | –
6 | Nc1c(-c2ccc(C(F)(F)F)c3[nH]ncc23)c2cc(Cl)ccc2[nH]c1=O [Compound A61, 3-Amino-6-chloro-4-[7-(trifluoromethyl)-1H-indazol-4-yl]-1H-quinolin-2-one] | 5 | 140 | – | –
7 | Nc1c(-c2cccc(O)c2)c2ccc3ccccc3c2[nH]c1=O [Compound B2, 3-Amino-4-(3-hydroxyphenyl)-1H-benzo[h]quinolin-2-one] | 4 | 22 | – | –
8 | N#Cc1cc2c(-c3ccc(F)c4[nH]ncc34)c(N)c(=O)[nH]c2c2ccccc12 [Compound B26, 3-Amino-4-(7-fluoro-1H-indazol-4-yl)-2-oxo-1H-benzo[h]quinoline-6-carbonitrile] | 0.37 | 10 | – | –
9 | Cc1cc2c(-c3ccc(F)c4[nH]ncc34)c(N)c(=O)[nH]c2c2ccccc12 [Compound B27, 3-Amino-4-(7-fluoro-1H-indazol-4-yl)-6-methyl-1H-benzo[h]quinolin-2-one] | 0.21 | 7.3 | – | –
10 | CP(C)(=O)c1cc2c(-c3ccc(F)c4[nH]ncc34)c(N)c(=O)[nH]c2c2ccccc12 [Compound B31, 3-Amino-6-dimethylphosphoryl-4-(7-fluoro-1H-indazol-4-yl)-1H-benzo[h]quinolin-2-one] | 0.32 | 19 | – | –
11 | Nc1c(-c2ccc(F)c3[nH]ncc23)c2cc(Cl)c3ccccc3c2[nH]c1=O [Compound B34, 3-Amino-6-chloro-4-(7-fluoro-1H-indazol-4-yl)-1H-benzo[h]quinolin-2-one] | 0.86 | 33 | – | –
12 | Nc1c(-c2cccc(F)c2)c2ccc3ccccc3c2[nH]c1=O [Compound B50, 3-Amino-4-(3-fluorophenyl)-1H-benzo[h]quinolin-2-one; hydrochloride] | 210 | 750 | – | –
13 | Nc1c(-c2cccc3[nH]ncc23)c2cc(Cl)c3ncccc3c2[nH]c1=O [Compound C79, 3-Amino-6-chloro-4-(1H-indazol-4-yl)-1H-1,7-phenanthrolin-2-one] | 0.3 | 11 | – | –
14 | Nc1c(-c2cccc(O)c2)c2ccc3ncccc3c2[nH]c1=O [Compound C184, 3-Amino-4-(3-hydroxyphenyl)-1H-1,7-phenanthrolin-2-one; hydrobromide] | < 4.6 | 10 | – | –
15 | Cn1cnc2c3[nH]c(=O)c(N)c(-c4ccc(F)c5[nH]ncc45)c3cc(C3CC3)c21 [Compound M4, 7-Amino-4-cyclopropyl-6-(7-fluoro-1H-indazol-4-yl)-3-methyl-9H-imidazo[4,5-h]quinolin-8-one] | – | 19 | 51 | 60

Now from value to compound, other results behind:

Row | IC50 (MYT1 protein [1]) [nM] | IC50 (MYT1 protein [2]) [nM] | SMILES | Bliss Score (Max) (LU65) [%] | HSA Score (MAX) (LU65) [%]
16 | 6.2 | 2.1 | Nc1c(-c2c(F)ccc3[nH]ncc23)c2cc(C3CC3)c3ncccc3c2[nH]c1=O (racemic) [Compound C156, 3-Amino-6-cyclopropyl-4-(5-fluoro-1H-indazol-4-yl)-1H-1,7-phenanthrolin-2-one] | 51 | 59
17 | – | 2.6 | N#C[C@H]1C[C@H](Oc2cc3c(-c4ccc(Cl)c5[nH]ncc45)c(N)c(=O)[nH]c3cc2Cl)C1 [Compound A12, (1r,3r)-3-[[3-Amino-7-chloro-4-(7-chloro-1H-indazol-4-yl)-2-oxo-1H-quinolin-6-yl]oxy]cyclobutane-1-carbonitrile] | 61 | 70
18 | 0.6 | 5.8 | Nc1c(-c2ccc(Cl)c3[nH]ncc23)c2cc(Cl)ccc2[nH]c1=O [Compound A59, 3-Amino-6-chloro-4-(7-chloro-1H-indazol-4-yl)-1H-quinolin-2-one] | 55 | 58
19 | 5.7 | 6 | N#Cc1cc2c(-c3cccc(O)c3)c(N)c(=O)[nH]c2c2ccccc12 [Compound B7, 3-Amino-4-(3-hydroxyphenyl)-2-oxo-1H-benzo[h]quinoline-6-carbonitrile] | – | –
20 | 3.9 | 6.8 | Nc1c(-c2cccc3[nH]ncc23)c2ccc3ncccc3c2[nH]c1=O [Compound C186, 3-Amino-4-(1H-indazol-4-yl)-1H-1,7-phenanthrolin-2-one] | – | –
21 | – | 1.6 | COc1cc2c(-c3ccc(F)c4[nH]ncc34)c(N)c(=O)[nH]c2c2cc(F)cnc12 [Compound F2, 3-Amino-9-fluoro-4-(7-fluoro-1H-indazol-4-yl)-6-methoxy-1H-1,7-phenanthrolin-2-one] | 86 | 83
22 | – | 2.7 | Nc1c(-c2ccc(F)c3[nH]ncc23)c2cc(C3CC3)c3cnsc3c2[nH]c1=O [Compound H3, 7-Amino-4-cyclopropyl-6-(7-fluoro-1H-indazol-4-yl)-9H-[1,2]thiazolo[4,5-h]quinolin-8-one] | 61 | 61
23 | – | 2.7 | Cc1nc2c(C)cc3c(-c4ccc(F)c5[nH]ncc45)c(N)c(=O)[nH]c3c2s1 [Compound K4, 7-Amino-6-(7-fluoro-1H-indazol-4-yl)-2,4-dimethyl-9H-[1,3]thiazolo[4,5-h]quinolin-8-one] | 56 | 66
24 | – | 2.3 | Nc1c(-c2ccc(F)c3[nH]ncc23)c2cc(C3CC3)c3ccsc3c2[nH]c1=O [Compound L3, 7-Amino-4-cyclopropyl-6-(7-fluoro-1H-indazol-4-yl)-9H-thieno[3,2-h]quinolin-8-one] | 51 | 61
25 | – | 3.3 | Nc1c(-c2ccc(F)c3[nH]ncc23)c2cc(C3CC3)c3scnc3c2[nH]c1=O [Compound N2, 7-Amino-4-cyclopropyl-6-(7-fluoro-1H-indazol-4-yl)-9H-[1,3]thiazolo[5,4-h]quinolin-8-one] | 50 | 57
26 | – | 1.1 | Cc1nc2c(-c3ccc(F)c4[nH]ncc34)c(N)c(=O)[nH]c2c2cccnc12 [Compound O1, 3-Amino-4-(7-fluoro-1H-indazol-4-yl)-6-methyl-1H-pyrido[2,3-h][1,5]naphthyridin-2-one] | 37 | 44
